Results as given in publication PMC8311653, “Design, Synthesis, In Vitro and In Vivo Characterization of Selective NKCC1 Inhibitors for the Treatment of Core Symptoms in Down Syndrome” (Journal of Medicinal Chemistry, 2021).

Experiments:
Ts65Dn mice [1] = assay: Open field test (locomotor activity); assay type: in vivo, mouse; details: ip 0.6 mg kg-1 daily
Protocol: All animal procedures were approved by IIT licensing in compliance with the Italian Ministry of Health (D.Lgs 26/2014) and EU guidelines (Directive 2010/63/EU). A veterinarian was employed to maintain the health and comfort of the animals. Mice were housed in filtered cages in a temperature-controlled room with a 12:12 h dark/light cycle and with ad libitum access to water and food. All efforts were made to minimize animal suffering and use the lowest possible number of animals required to produce statistical relevant results, according to the “3Rs concept”. In this study, we used Ts65Dn mice maintained in their original genetic background[57] by crossing (more than 40 times) Ts65Dn female to C57BL/6JEi × C3SnHeSnJ (B6EiC3) F1 males (Jackson Laboratories). Ts65Dn mice were genotyped by PCR as previously described.[58] Only males were used for behavioral experiments. […]
Ts65Dn male mice (8–16 weeks old) were tested after 1 week of treatment with vehicle or 40 (0.6 mg kg^–1 i.p.). […] The tasks were video-recorded and then analyzed manually by a blind operator. […] The alternation score was calculated as the percentage of correct choices (i.e., left–right or right–left) over the total number of the 10 possible alternations. […]

Ts65Dn mice [2] = assay: Novel object recognition (NOR) test; assay type: in vivo, mouse; details: ip 0.6 mg kg-1 daily, chronic (7-21 days)
Protocol: A veterinarian was employed to maintain the health and comfort of the animals. Mice were housed in filtered cages in a temperature-controlled room with a 12:12 h dark/light cycle and with ad libitum access to water and food. All efforts were made to minimize animal suffering and use the lowest possible number of animals required to produce statistical relevant results, according to the “3Rs concept”. In this study, we used Ts65Dn mice maintained in their original genetic background[57] by crossing (more than 40 times) Ts65Dn female to C57BL/6JEi × C3SnHeSnJ (B6EiC3) F1 males (Jackson Laboratories). Ts65Dn mice were genotyped by PCR as previously described.[58] Only males were used for behavioral experiments. Ts65Dn and controls were randomly assigned to vehicle groups (2% DMSO in saline), bumetanide (Sigma, 0.6 mg kg^–1 body weight), or 40 (0.6 mg kg^–1 body weight) and treated daily for ∼21 days by intraperitoneal injection (i.p.). On the day of behavioral testing, injection was performed 1 h before the task began.
Ts65Dn male mice (8–16 weeks old) were tested after 1 week of treatment with vehicle or 40 (0.6 mg kg^–1 i.p.). The battery of tests was run over a total period of ∼14 days (four behavioral tests with the following order Open Field, NOR, T-maze, and CFC). […] The tasks were video-recorded and then analyzed manually by a blind operator.

**Q.** For `CN(C)S(=O)(=O)c1cc(C(=O)O)c(O)cc1NCCCCCCCC(F)(F)F` [Compound 40, 5-(N,N-Dimethylsulfamoyl)-2-hydroxy-4-((8,8,8-trifluorooctyl)amino)benzoic Acid], which “hyperactivity in open field (distance traveled and average walking speed)” value (Ts65Dn mice [1]) is on record?
**A.** The value was “rescued also the hyperactivity”.

**Q.** What about the “novel-discrimination ability in the NOR task (discrimination index)” value (Ts65Dn mice [2]) of the same molecule?
**A.** Its value is “completely rescued”.
